Source: publication PMC5671894 (Journal of biological inorganic chemistry : JBIC : a …, 2017)
Where two headings read alike, the source gives them in different places.

Legend:
[1] = target: T1, soluble portion of human PTP1B (residues 1-321) (Homo sapiens, UniProt P18031); assay: Steady-state inhibition of PTP1B-catalyzed hydrolysis of pNPP; format: biochemical; details: substrate pNPP; for Ki: 0.1 M NaCl, pH 5, 22° C, N2-purged
T1 sequence (P18031 1-321): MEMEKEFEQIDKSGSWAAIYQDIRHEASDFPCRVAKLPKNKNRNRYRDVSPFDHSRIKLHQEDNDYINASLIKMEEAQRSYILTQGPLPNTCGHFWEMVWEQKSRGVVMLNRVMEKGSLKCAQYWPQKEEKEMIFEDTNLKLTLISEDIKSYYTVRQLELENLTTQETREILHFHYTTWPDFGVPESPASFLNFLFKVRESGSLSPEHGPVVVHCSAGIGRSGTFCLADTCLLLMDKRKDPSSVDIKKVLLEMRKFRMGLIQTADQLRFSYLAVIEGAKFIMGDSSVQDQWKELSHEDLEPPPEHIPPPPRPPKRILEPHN

PTP1B [2] = details: substrate pNPP; cited from earlier work
[3] = test system: fused protein construct of glutathione-S-transferase and the full length PTP1B polypeptide chain (435 residues); details: substrate pNPP; cited from earlier work
PTP1B [4] = details: substrate DADEpYLIPQQG; malachite green, 30 min, not steady-state; cited from earlier work
[5] = target: T1, soluble portion of human PTP1B (residues 1-321); format: biochemical
PTP1B [6] = details: ref Makinen, M. W. and Zhou, K. I., unpublished observations; cited from earlier work
[7] = target: T1, soluble portion of human PTP1B (residues 1-321); format: biochemical; details: substrate hydrolysis, no inhibitor; this study
[8] = test system: Rat PTP1 (residues 1–323); details: 0.1 M ionic strength, pH 5.5; cited from earlier work

With `Cc1[nH]ccc(=O)c1[O-].Cc1[nH]ccc(=O)c1[O-].[O]=[V+2]` [VO(mpp)2, bis(3-hydroxy-2-methyl-4(1H)pyridinonato)oxidovanadium(IV)] the mode of inhibition [1] was “competitive inhibition” and the Ki [1] was 38.2 ± 0.5 µM.
In the case of `CCc1oc2cc(S(=O)(=O)Nc3ccc(S(N)(=O)=O)cc3)ccc2c1C(=O)c1cc(Br)c(O)c(Br)c1` [Compound 2, 3-(3,5-dibromo-4-hydroxy-benzoyl)-2-ethyl-benzofuran-6-sulfonic acid (4-sulfamoyl-phenyl)amide], the mode of inhibition (PTP1B [2]) is listed as “noncompetitive inhibition”.
For `Cc1occc(=O)c1[O-].Cc1occc(=O)c1[O-].[O]=[V+2]` [VO(Me-malto)2, bis(2-methyl-maltolato)oxidovanadium(IV)], the mode of inhibition [3] is given as “mixed inhibition”.
In the case of `CC(=O)/C=C(/C)[O-].CC(=O)/C=C(/C)[O-].[O]=[V+2]` [VO(acac)2, bis(acetylacetonato)oxidovanadium(IV)], the mode of inhibition (PTP1B [4]) is listed as “uncompetitive behavior”.
With `CCc1occc(=O)c1[O-].CCc1occc(=O)c1[O-].[O]=[V+2]` [VO(Et-malto)2, bis(2-ethyl-maltolato)oxidovanadium(IV)] the mode of inhibition [1] was “noncompetitive inhibition”, the Ki [1] was 14.8 ± 1.4 µM and the mode of inhibition ([5]; substrate EGFR^988-998 (DADEpYLIPQQG)) was “noncompetitive”. It also gave a Ki ([5]; substrate EGFR^988–998, 0.1 M NaCl, pH 6, 20° C, N2-purged) of 0.14 ± 0.01 µM.
In the case of `CC(=O)/C=C(/C)O` [Mg(acac)2], the Ki (PTP1B [6]) is given as greater than 600 µM.
In the case of `O=[N+]([O-])c1ccc(OP(=O)(O)O)cc1` [pNPP, para-nitrophenylphosphate], the Km [7] is listed as 460 ± 120 µM, the kcat [7] is listed as 62.9 ± 12.0 s⁻¹ and the Km [8] is listed as 339 ± 16 µM. The kcat [8] was 69.2 ± 1.1 s⁻¹.
